From the supplement of paper PMC10307832

Legend:
[1] = compound: CC1CC(=O)N(C2=CN=C(N=C2N1C3CCCC3)NC4=C(C=C(C=C4)C(=O)NC5CCN(CC5)C)OC)C [NPK76-II-72-1] + CC(=O)Nc1cccc(-n2c(=O)n(C3CC3)c(=O)c3c(Nc4ccc(I)cc4F)n(C)c(=O)c(C)c32)c1 [Trametinib] (partner 0.02 µM); assay: relative viability (nuclei count vs DMSO), 5 days (fraction); higher = more cells survive
Summary of the method: (§1)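 The day after seeding in 1536-well plates, lung cancer cell lines were treated by pin tool with a single drug, or with a fixed anchor-drug dose together with five library-drug doses (not always all listed) in √10 steps. After 5 days, a combined fix-and-stain solution (final 0.05% Triton X-100, 1% formaldehyde, 1 ug/ml Hoechst) was added. Nuclei counted on 4× images gave relative viability as treated counts over vehicle counts, reported as the median of duplicate plates.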

BI-2536 + Dasatinib = compound: CC[C@@H]1C(=O)N(C)c2cnc(Nc3ccc(C(=O)NC4CCN(C)CC4)cc3OC)nc2N1C1CCCC1 [BI-2536] + Cc1nc(Nc2ncc(C(=O)Nc3c(C)cccc3Cl)s2)cc(N2CCN(CCO)CC2)n1 [Dasatinib] (partner 0.075 µM); assay: as above
Summary of the method: as §1

Row | Cell Line | relative viability ([1]; first compound 0.01 µM) | relative viability ([1]; first compound 0.03162 µM) | relative viability ([1]; first compound 0.1 µM) | relative viability ([1]; first compound 0.3162 µM) | relative viability ([1]; first compound 1 µM) | relative viability (BI-2536 + Dasatinib; first compound 0.01 µM) | relative viability (BI-2536 + Dasatinib; first compound 0.03162 µM) | relative viability (BI-2536 + Dasatinib; first compound 0.1 µM) | relative viability (BI-2536 + Dasatinib; first compound 0.3162 µM) | relative viability (BI-2536 + Dasatinib; first compound 1 µM)
1 | SW 1573 | 0.471 | 0.511 | 0.633 | 0.483 | 0.658 | 0.563 | 0.222 | 0.0892 | 0.0839 | 0.0938
2 | NCI-H727 | 0.352 | 0.392 | 0.341 | 0.394 | 0.395 | 0.442 | 0.312 | 0.319 | 0.322 | 0.227
3 | NCI-H441 | 0.396 | 0.507 | 0.429 | 0.497 | 0.54 | 0.434 | 0.244 | 0.195 | 0.164 | 0.179
4 | LOU-NH91 | 0.76 | 0.751 | 0.777 | 0.739 | 0.829 | 0.599 | 0.539 | 0.52 | 0.289 | 0.256
5 | NCI-H3122 | 0.186 | 0.216 | 0.242 | 0.261 | 0.236 | 0.813 | 0.878 | 0.158 | 0.0979 | 0.104
6 | NCI-H460 | 0.271 | 0.14 | 0.141 | 0.123 | 0.174 | 0.483 | 0.635 | 0.368 | 0.0145 | 0.0151
7 | NCI-H650 | 1.14 | 0.996 | 0.957 | 0.997 | 1.01 | 0.44 | 0.511 | 0.3 | 0.158 | 0.0998
8 | NCI-H661 | 0.622 | 0.685 | 0.589 | 0.526 | 0.611 | 0.851 | 0.307 | – | – | 0.367
9 | NCI-H1793 | – | 0.389 | 0.408 | 0.511 | 0.401 | 0.401 | 0.356 | 0.129 | 0.113 | 0.163
10 | NCI-H1734 | 0.621 | 0.645 | 0.587 | 0.638 | 0.643 | 0.439 | 0.462 | 0.167 | 0.145 | 0.131
11 | LXF-289 | 0.71 | 0.691 | 0.644 | 0.703 | 0.68 | 0.274 | 0.235 | 0.0786 | 0.047 | 0.0368
12 | H3255 | 0.675 | 0.603 | 0.637 | – | 0.587 | 0.315 | 0.237 | 0.235 | 0.27 | 0.25
13 | 201T | 0.716 | 0.701 | 0.709 | 0.689 | 0.716 | 0.579 | 0.57 | 0.547 | 0.402 | 0.285
14 | NCI-H2126 | 0.541 | 0.567 | 0.563 | 0.537 | 0.598 | 0.659 | 0.58 | 0.294 | 0.26 | 0.224
15 | HOP-62 | 0.384 | 0.415 | 0.337 | 0.428 | 0.37 | 0.618 | 0.665 | 0.515 | 0.173 | 0.167
16 | CAL-12T | 0.325 | 0.346 | 0.362 | 0.306 | 0.37 | 0.387 | 0.287 | 0.0978 | 0.121 | 0.0997
17 | NCI-H520 | 0.646 | 0.687 | 0.676 | 0.688 | 0.769 | 0.164 | 0.204 | 0.194 | 0.153 | 0.13
18 | NCI-H1755 | 0.756 | 0.752 | 0.75 | 0.752 | 0.799 | 0.452 | 0.391 | 0.271 | 0.195 | 0.198
19 | NCI-H2023 | 0.584 | 0.645 | 0.677 | 0.556 | 0.512 | 0.587 | 0.463 | 0.346 | 0.0877 | 0.0801
20 | NCI-H2009 | 0.292 | 0.245 | 0.286 | 0.335 | 0.265 | 0.256 | 0.248 | 0.169 | 0.137 | 0.0971
